Entries after “also recorded” stand apart in the source; their conditions may differ.
Columns and labels:
WT (C57BL/6) mice [1] = assay: Intravital microscopy, laser-induced cremaster arteriolar injury, WT mice; type: in vivo, mouse; details: iv 5 μg/g BW
Method: Intravital microscopy was performed in a mouse model of laser-induced cremaster arteriolar injury as previously described. WT (C57BL/6), littermate WT control, and CKO and KO male mice (8-10 weeks old) were anesthetized with intraperitoneal injection of ketamine and xylazine. The cremaster muscle was exteriorized and superfused with 37° C. bicarbonate-buffered saline throughout the experiment. Arteriolar wall injury was induced by laser ablation (Photonics Instruments) as previously described. Multiple thrombi were generated in at least 3 to 4 different arterioles of 1 mouse, with new thrombi formed upstream of earlier thrombi to minimize any contribution from thrombi generated earlier in the mouse. Platelets and fibrin were visualized by infusion of DyLight 649-conjugated anti-CD42c (0.2 μg/g body weight [BW]) and Alexa Fluor 488-conjugated anti-fibrin (0.2 μg/g BW) antibodies, respectively. To detect extracellular Ero1α, Alexa Fluor 488-conjugated rabbit IgG or nonblocking anti-ERO1α antibodies (0.3 μg/g BW) were injected into WT (C57BL/6), WT control, Ero1α KO, and Ero1α CKO mice. In some experiments, wtERO1α or activity-null ERO1α-Cys94Ser (mutant ERO1α [mERO1α]; 4 μg/g BW) was infused into Ero1α KO mice before imaging. To test the effect of ERO1α inhibitors or blocking anti-ERO1α antibodies, WT (C57BL/6) mice were treated with intravenous injection of vehicle control, eptifibatide (5 μg/g BW), B12-5 (5 μg/g BW), isotype control IgGs, anti-ERO1α (15E9, 1-3 μg/g BW), or anti-PDI (BD34, 3 μg/g BW) 3 minutes before treatment with the anti-CD42c and anti-fibrin antibodies. The same dose of eptifibatide was injected every 20 minutes to maintain the inhibitory effect. […] Fluorescence and bright-field images were captured in 6 to 10 different cremaster arterioles with a diameter of 30 to 45 μm in each mouse and recorded using either an Olympus BX61W microscope with a 60×1.0 salt water immersion objective or a Zeiss Axio Examiner Z1 microscope system with a Yokogawa confocal spinning disk (CSU-W1) equipped with 4 stack laser system (405-, 488-, 561-, and 637-nm wavelengths). Images were collected with a high-speed, high-resolution camera (2304×2304 pixel format; ORCA-Fusion BT sCMOS, Hamamatsu). Time 0 was set to when image capture began on each vessel. The data were analyzed using Slidebook (version 6.0; Intelligent Imaging Innovations). Due to the significant variation between vessels in the same mouse, the result from each vessel was counted as an individual value. Representative images were chosen that most closely resemble the mean values in the quantifications.

WT (C57BL/6) mice [2] = assay: Transient middle cerebral artery occlusion (tMCAO) ischemic stroke model; type: in vivo, mouse; details: single iv 5 μg/g BW after tMCAO, 23 hours later
Method: FIG. 19(A-Q) is an exemplary embodiment of B12-5 having an antithrombotic effect without prolonging tail bleeding times in mice in accordance with the present disclosure. FIG. 19(A-C): Ex vivo effects of B12-5. Wild type (WT; C57BL/6) mice were treated with intravenous injection of vehicle (20% polyethylene glycol [PEG]+3% dimethyl sulfoxide [DMSO]) or B12-5 (5 μg/g body weight [BW]). One hour later, blood was drawn, followed by isolating platelets. P-selectin exposure (FIG. 19A) and αIIbβ3 integrin activation (FIG. 19B) were assessed in flow cytometry. FIG. 19C: Platelet aggregation was measured after treatment with 0.025 U/mL thrombin. The data represent the mean±SD (n=4). FIG. 19D: The plasma levels of B12-5 were analyzed by liquid chromatography-tandem mass spectrometry (LC-MS/MS) after intravenous injection of the compound (5 μg/g BW) into WT mice and quantified by comparison with a standard curve of B12-5 (mean±SD, n=3). FIG. 19E and FIG. 19F: After laser-induced cremaster arteriolar injury, intravital microscopy was conducted with WT mice pretreated with intravenous injection of saline, eptifibatide (5 μg/g BW), vehicle, or B12-5 (5 μg/g BW). The median integrated fluorescence intensities of anti-CD42c (F platelet) and anti-fibrin (F fibrin) antibodies (n=37-42 arterioles in 6 mice per group). Quantification of the antibody signal at a different time point after laser injury. FIG. 19G: Comparison of B12-5 (5 μg/g BW) with eptifibatide (5 μg/g BW) and their respective controls in inhibiting FeCl3-induced carotid artery thrombosis in WT mice. FIG. 19H and FIG. 19I: WT mice were treated with intravenous injection of vehicle control, eptifibatide (5 μg/g BW), or B12-5 (5 μg/g BW). Thirty minutes later, tail bleeding times and Hb contents were measured after amputation of the tail tip. Bars represent the median value (FIG. 19(E-1)). FIG. 19J and FIG. 19M: WT control and Ero1α conditional knockout (CKO) and knockout (KO) mice were subjected to transient middle cerebral artery occlusion (tMCAO). Twenty-three hours later, neurological deficits were assessed by the Bederson score and grip test, and infarct volume was measured as described in Methods. FIG. 19N through FIG. 19Q: WT mice were subjected to tMCAO and then treated with saline, vehicle, or B12-5 (5 μg/g BW). Twenty-three hours later, the neurological deficit and infarct volume were measured as described above. FIG. 19K and FIG. 19O: The data represent the mean±SD (n=7-8). FIG. 19L, FIG. 19M, FIG. 19P, and FIG. 19Q: The bar indicates the median with interquartile range. P values determined by unpaired Student t test (FIG. 19(A-C), FIG. 19K, and FIG. 19O) or Mann-Whitney U test (FIG. 19(E-1), FIG. 19L, FIG. 19M, FIG. 19P, and FIG. 19Q). […]

`O=C(CSc1nc(O)cc(O)n1)N1c2ccccc2Sc2ccccc21` [B12-5] was tested, and the platelet thrombus formation (WT (C57BL/6) mice [1]) was “significantly inhibited; also recorded: significantly reduced”, the platelet thrombus formation (WT (C57BL/6) mice [1]; listed as B112-5) was “inhibit” and the infarct volume (WT (C57BL/6) mice [2]) was “significantly reduced”. The “neurological deficits (Bederson score, grip test)” value (WT (C57BL/6) mice [2]) was “ameliorated”, the infarct volume (WT (C57BL/6) mice [2]; listed as B112-5) was “significantly reduces; also recorded: reduced” and the “neurological deficits (Bederson score, grip test)” value (WT (C57BL/6) mice [2]; listed as B112-5) was “improves”.
